Test results published in ChEMBL document CHEMBL1140618, “3D-QSAR and molecular docking studies on benzothiazole derivatives as Candida albicans N-myristoyltransferase inhibitors” (Eur J Med Chem, 2007).

Target: T1, Glycylpeptide N-tetradecanoyltransferase (Candida albicans (strain SC5314 / ATCC MYA-2876) (Yeast), UniProt P30418)
T1 sequence (P30418 whole entry): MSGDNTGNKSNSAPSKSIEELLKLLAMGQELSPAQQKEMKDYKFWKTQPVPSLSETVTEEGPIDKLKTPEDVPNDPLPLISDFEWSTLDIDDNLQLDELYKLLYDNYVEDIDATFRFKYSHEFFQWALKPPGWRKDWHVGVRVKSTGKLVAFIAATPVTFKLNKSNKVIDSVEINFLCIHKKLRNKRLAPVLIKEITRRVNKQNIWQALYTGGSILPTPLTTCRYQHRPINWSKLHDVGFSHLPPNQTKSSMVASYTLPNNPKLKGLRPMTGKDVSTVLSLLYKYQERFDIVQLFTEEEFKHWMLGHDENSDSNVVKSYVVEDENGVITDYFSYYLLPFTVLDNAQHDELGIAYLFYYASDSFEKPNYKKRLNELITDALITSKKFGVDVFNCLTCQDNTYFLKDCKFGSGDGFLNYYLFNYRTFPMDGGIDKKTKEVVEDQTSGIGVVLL
Assay: Inhibition of Candida albicans N-myristoyltransferse

Compound | IC50
Cc1ccc(C(=O)c2oc3cccc(OCCCNCc4cccnc4)c3c2C)nc1 | 0.39 nM
O=C(NCCNCc1ccc2ccccc2c1)c1ccc2ncsc2c1 | > 10000 nM
Nc1nc2ccc(C(=O)NCCNCc3ccc4ccccc4c3)cc2s1 | > 10000 nM
O=C(NCCNCc1ccc2ccccc2c1)c1ccc2nc(NCc3ccccc3)sc2c1 | > 10000 nM
O=C(NCCNCc1ccc2ccccc2c1)c1ccc2nc(NCc3ccccn3)sc2c1 | > 10000 nM
CC(=O)Nc1nc2ccc(C(=O)NCCNCc3ccc4ccccc4c3)cc2s1 | > 10000 nM
CCC(=O)Nc1nc2ccc(C(=O)NCCNCc3ccc4ccccc4c3)cc2s1 | 130 nM
CC(C)C(=O)Nc1nc2ccc(C(=O)NCCNCc3ccc4ccccc4c3)cc2s1 | 46 nM
O=C(NCCNCc1ccc2ccccc2c1)c1ccc2nc(NC(=O)c3ccccc3)sc2c1 | 160 nM
O=C(NCCNCc1ccc2ccccc2c1)c1ccc2nc(NC(=O)c3ccccn3)sc2c1 | > 10000 nM
O=C(NCCNCc1ccc2ccccc2c1)c1ccc2nc(NC(=O)c3cnccn3)sc2c1 | 730 nM
O=C(NCCNCc1ccc2ccccc2c1)c1ccc2nc(NC(=O)c3ccc(Cl)c(Cl)c3)sc2c1 | > 10000 nM
O=C(NCCNCc1ccc2ccccc2c1)c1ccc2nc(NC(=O)c3ccc(C(F)(F)F)cc3)sc2c1 | > 10000 nM
COc1ccc(OC)c(C(=O)Nc2nc3ccc(C(=O)NCCNCc4ccc5ccccc5c4)cc3s2)c1 | 310 nM
O=C(CCNCc1ccc(-c2ccccc2)cc1)Nc1ccc2nc(NC(=O)C3CCCC3)sc2c1 | 160 nM
O=C(Nc1nc2ccc(NC(=O)[C@@H]3CC[C@H](NCc4ccc5ccccc5c4)C3)cc2s1)C1CCCC1 | 11 nM
O=C(Nc1ccc2nc(NC(=O)C3CCCC3)sc2c1)C1CCCC(NCc2ccc(-c3ccccc3)cc2)C1 (stereo unspecified) | 130 nM
O=C(Nc1nc2ccc(NC(=O)[C@H]3CCC[C@@H](NCc4ccc5ccccc5c4)C3)cc2s1)C1CCCC1 | 0.49 nM
CC(C)C(=O)Nc1nc2ccc(NC(=O)C3CCCC(NCc4ccc5ccccc5c4)C3)cc2s1 (stereo unspecified) | 3.3 nM
O=C(Nc1ccc2nc(NC(=O)C3CCC3)sc2c1)C1CCCC(NCc2ccc3ccccc3c2)C1 (stereo unspecified) | 2.3 nM
O=C(Nc1ccc2nc(NC(=O)C3CCCC3)sc2c1)C1CCC(NCc2ccc3ccccc3c2)CC1 (stereo unspecified) | 34 nM
Cc1c(COc2ccc(F)c(F)c2F)oc2cccc(OCCCNCc3cccnc3)c12 | 5.7 nM
O=C(NCCNCc1ccc2ccccc2c1)c1ccc2nc(NC(=O)c3cccnc3Cl)sc2c1 | > 10000 nM
O=C(Nc1ccc2nc(NC(=O)C3CC3)sc2c1)C1CCCC(NCc2ccc3ccccc3c2)C1 (stereo unspecified) | 2.4 nM
O=C(Nc1ccc2nc(NC(=O)C3CCCCC3)sc2c1)C1CCCC(NCc2ccc3ccccc3c2)C1 (stereo unspecified) | 8.1 nM
CC(C)(C)OC(=O)Nc1nc2ccc(C(=O)NCCNCc3ccc4ccccc4c3)cc2s1 | > 10000 nM
CCOC(=O)c1oc2cccc(OCCCNC(C)(C)C)c2c1C | 1700 nM

Continued, values first:

IC50 | Compound
> 10000 nM | O=C(NCc1ccc(CNCc2ccc3ccccc3c2)cc1)c1ccc2nc(NC(=O)C3CCCCC3)sc2c1
65 nM | O=C(Nc1nc2ccc(C(=O)N3CC(NCc4ccc5ccccc5c4)C3)cc2s1)C1CCCCC1
190 nM | O=C(Nc1nc2ccc(C(=O)N3CCC(NCc4ccc5ccccc5c4)C3)cc2s1)C1CCCCC1 (stereo unspecified)
500 nM | O=C(Nc1nc2ccc(C(=O)N3CCC(NCc4ccc5ccccc5c4)CC3)cc2s1)C1CCCCC1
1900 nM | O=C(NCc1cccc(CNCc2ccc3ccccc3c2)c1)c1ccc2nc(NC(=O)C3CCCCC3)sc2c1
26 nM | O=C(Nc1nc2ccc(C(=O)N3CCC(CNCc4ccc5ccccc5c4)CC3)cc2s1)C1CCCCC1
210 nM | O=C(Nc1nc2ccc(C(=O)N3CCCC(NCc4ccc5ccccc5c4)C3)cc2s1)C1CCCCC1 (stereo unspecified)
2300 nM | O=C(CNCc1ccc2ccccc2c1)Nc1ccc2nc(NC(=O)C3CCCCC3)sc2c1
> 1000 nM | O=C(NCCNCc1ccc2ccccc2c1)c1ccc2nc(NCC3CCCCC3)sc2c1
23 nM | O=C(NCCNCc1ccc2ccccc2c1)c1ccc2nc(NC(=O)C3CCCC3)sc2c1
890 nM | O=C(NCCNCc1ccc2ccccc2c1)c1ccc2nc(NC(=O)C3CCOCC3)sc2c1
> 10000 nM | O=C(NCCNCc1ccc2ccccc2c1)c1ccc2nc(NC(=O)C3CCNCC3)sc2c1
34 nM | O=C(NCCNCc1ccc2ccccc2c1)c1ccc2nc(NC(=O)C3CCCCC3)sc2c1
110 nM | O=C(NCCCNCc1ccc2ccccc2c1)c1ccc2nc(NC(=O)C3CCCCC3)sc2c1
74 nM | O=C(NCCCCNCc1ccc2ccccc2c1)c1ccc2nc(NC(=O)C3CCCCC3)sc2c1
> 10000 nM | O=C(NCCNCc1ccc2ccccc2c1)c1ccc2nc(NC(=O)c3ccc(Cl)cc3)sc2c1
15 nM | O=C(CCCNCc1ccc2ccccc2c1)Nc1ccc2nc(NC(=O)C3CCCC3)sc2c1
28 nM | O=C(NCCNCc1ccc2ccccc2c1)c1ccc2nc(NC(=O)C3CCC3)sc2c1
300 nM | O=C(NCCCCCNCc1ccc2ccccc2c1)c1ccc2nc(NC(=O)C3CCCCC3)sc2c1
